Patent US20260265199A1, “CRYSTALLINE FORMS OF (R)-2-AMINO-5-(4-(2-(3,5-DIFLUOROPHENYL)-2-HYDROXYACETAMIDO)-2-METHYLPHENYL)-N-ISOPROPYLNICOTINAMIDE AND METHODS FOR USING THE SAME” (HIBERCELL, INC., priority 2023, published 2026)
Where a name gives a salt, the structure may show the parent alone. Read-outs that look alike come from different tables or passages of the source.

Assay: Solubility of hemi-fumarate Form A by visual assessment upon solvent addition
Format: physicochemical
Method: The solubility of the Form A of the hemi-fumarate salt was evaluated by visual assessment of samples upon solvent addition, employing organic solvents and water. Among the solvents, the Form A of the hemi-fumarate salt had the highest solubility in THF, MeOH, EtOH and acetone (>50 mg/mL).

For Cc1cc(NC(=O)[C@H](O)c2cc(F)cc(F)c2)ccc1-c1cnc(N)c(C(=O)NC(C)C)c1 [Form A of the hemi-fumarate salt, (R)-2-amino-5-(4-(2-(3,5-difluorophenyl)-2-hydroxyacetamido)-2-methylphenyl)-N-isopropylnicotinamide], the solubility (2-butanone, organic solvent or mixture, thermodynamic from solid, 2-butanone, read-out: Solubility) was over 27.5 mg/mL, the solubility (Acetone) was over 50 mg/mL and the solubility (EtOAc, organic solvent or mixture, thermodynamic from solid, EtOAc, read-out: Solubility) was over 9.8 mg/mL. It also gave a solubility (EtOH) of over 53.4 mg/mL, a solubility (EtOH, organic solvent or mixture, thermodynamic from solid, EtOH, read-out: Solubility) of over 50 mg/mL and a solubility (IPA, organic solvent or mixture, thermodynamic from solid, IPA, read-out: Solubility) of over 17.8 mg/mL. For the same molecule, the solubility (IPAc, organic solvent or mixture, thermodynamic from solid, IPAc, read-out: Solubility) was over 2.1 mg/mL, the solubility (MTBE, organic solvent or mixture, thermodynamic from solid, MTBE, read-out: Solubility) was under 2.2 mg/mL and the solubility (MeCN, organic solvent or mixture, thermodynamic from solid, MeCN, read-out: Solubility) was over 3.2 mg/mL. It also gave a solubility (MeOH) of over 62.2 mg/mL, a solubility (MeOH, organic solvent or mixture, thermodynamic from solid, MeOH, read-out: Solubility) of over 50 mg/mL and a solubility (THF) of over 81.8 mg/mL. For the same molecule, the solubility (THF, organic solvent or mixture, thermodynamic from solid, THF, read-out: Solubility) was over 50 mg/mL, the solubility (acetone, organic solvent or mixture, thermodynamic from solid, Acetone, read-out: Solubility) was over 50 mg/mL and the solubility (heptane, organic solvent or mixture, thermodynamic from solid, Heptane, read-out: Solubility) was under 0.63 mg/mL. The solubility (isobutanol, organic solvent or mixture, thermodynamic from solid, Isobutanol, read-out: Solubility) was over 5.8 mg/mL, the solubility (toluene, organic solvent or mixture, thermodynamic from solid, Toluene, read-out: Solubility) was under 0.96 mg/mL and the solubility (water, thermodynamic from solid, Water, read-out: Solubility) was under 0.83 mg/mL.
